Results: the supplement of paper PMC10331698
± gives the standard deviation of the averaged measurements.

Key:
Assay in all cases: level (log10 ratio to DMSO vehicle control); higher = higher biomarker level / cell amount than vehicle control
Conditions in all cases: in DMSO
[1] = compound: O=C(O)C(F)(F)C(F)(F)C(=O)O [Tetrafluorosuccinic acid]
Description: (§1)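 BioMAP Diversity Plus panel of 12 human primary cell co-culture systems (3C, 4H, LPS, SAg, BT, BF4T, BE3C, CASM3C, HDF3CGF, KF3CT, MyoF, Mphg). Compounds were added 1 h before stimulation and left for 24 h (MyoF 48 h; BT 72 h for soluble read-outs or 6 d for IgG). Biomarkers were read by ELISA, cytotoxicity by SRB, PBMC viability and proliferation by Alamar Blue. Each well value was divided by the mean of 8 DMSO control wells on the same plate and log10 transformed; duplicate blinded samples were tested at 4 concentrations.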

[2] = compound: O=C(Cl)C(F)(F)C(F)(F)C(F)(F)C(=O)Cl [Hexafluoroglutaryl chloride]
Description: as §1

[3] = compound: CN(Cc1cnc2nc(N)nc(N)c2n1)c1ccc(C(=O)N[C@@H](CCC(=O)O)C(=O)O)cc1 [Methotrexate]
Description: as §1

[4] = compound: OCCCCC(F)(F)C(F)(F)C(F)(F)C(F)(F)F [4:4 Fluorotelomer alcohol]
Description: as §1

[5] = compound: O=S(=O)(OCC(F)(F)F)C(F)(F)C(F)(F)C(F)(F)C(F)(F)F [2,2,2-Trifluoroethyl perfluorobutanesulfonate]
Description: as §1

[6] = compound: O=S(=O)(O)CCC(F)(F)C(F)(F)C(F)(F)C(F)(F)F [4:2 Fluorotelomer sulfonic acid]
Description: as §1

Test System	level (log10) ([1]; 6700 nM)	level (log10) ([1]; 20000 nM)	level (log10) ([1]; 60000 nM)	level (log10) ([2]; 6700 nM)	level (log10) ([2]; 20000 nM)	level (log10) ([2]; 60000 nM)	level (log10) ([3]; 1500 nM)	level (log10) ([3]; 4400 nM)	level (log10) ([3]; 13000 nM)	level (log10) ([3]; 40000 nM)	level (log10) ([4]; 6700 nM)	level (log10) ([4]; 20000 nM)	level (log10) ([4]; 60000 nM)	level (log10) ([5]; 6700 nM)	level (log10) ([5]; 20000 nM)	level (log10) ([5]; 60000 nM)	level (log10) ([6]; 6700 nM)	level (log10) ([6]; 20000 nM)	level (log10) ([6]; 60000 nM)
SAg:CXCL9/MIG	-0.006 ± 0.0014	0.003	0.013 ± 0.0099	0 ± 0.016	-0.0005 ± 0.011	0.013 ± 0.017	0.0095 ± 0.0035	0 ± 0.035	0.006 ± 0.034	-0.003 ± 0.027	0.0015 ± 0.0021	-0.006 ± 0.0071	0.0045 ± 0.012	0.0035 ± 0.015	-0.004 ± 0.0014	0 ± 0.013	-0.0055 ± 0.013	-0.0075 ± 0.0064	0.0035 ± 0.005
BE3C:CXCL11/I-TAC	0.002 ± 0.0042	-0.0025 ± 0.0092	-0.002 ± 0.0014	0.0285 ± 0.015	0.0105 ± 0.046	0.021 ± 0.031	0.017 ± 0.027	0.0135 ± 0.029	0.0225 ± 0.015	0.016 ± 0.031	-0.013 ± 0.0028	-0.0125 ± 0.00071	-0.0025 ± 0.015	0.017 ± 0.0057	-0.003 ± 0.0085	0.006 ± 0.0085	0.008 ± 0.0042	0.043 ± 0.033	0.0485 ± 0.0092
SAg:CXCL8/IL-8	-0.0345 ± 0.039	-0.044 ± 0.021	-0.006 ± 0.064	-0.024 ± 0.0071	-0.029 ± 0.042	0.0065 ± 0.005	0.023 ± 0.037	-0.0215 ± 0.022	-0.004 ± 0.02	0.0195 ± 0.052	0.0075 ± 0.0021	0.002 ± 0.0057	-0.0015 ± 0.025	0.0205 ± 0.029	0.034 ± 0.024	0.134 ± 0.086	-0.048 ± 0.093	-0.007 ± 0.052	0.034 ± 0.042
4H:CD62P/P-selectin	0.001 ± 0.017	-0.011 ± 0.0042	-0.0005 ± 0.015	-0.012 ± 0.033	0.0045 ± 0.026	-0.0045 ± 0.043	-0.019 ± 0.0028	-0.0195 ± 0.032	-0.0045 ± 0.086	-0.0055 ± 0.073	0.023 ± 0.0028	0.019 ± 0.013	0.0115 ± 0.005	-0.0365 ± 0.016	-0.034 ± 0.0085	-0.0525 ± 0.015	-0.045 ± 0.075	-0.0285 ± 0.059	0.005 ± 0.073
BE3C:IL-1alpha	0.019 ± 0.013	0.009 ± 0.02	0.0385 ± 0.012	-0.014 ± 0.025	-0.017 ± 0.0042	0.0025 ± 0.005	-0.012 ± 0.0085	-0.0255 ± 0.023	-0.0095 ± 0.054	0.007 ± 0.033	0.0255 ± 0.00071	0.0095 ± 0.011	0.0155 ± 0.021	0.0045 ± 0.011	0.0025 ± 0.0078	0.015 ± 0.013	-0.011 ± 0.0014	-0.011 ± 0.013	0.0045 ± 0.0092
BE3C:CXCL9/MIG	0.005 ± 0.0071	0 ± 0.0085	0.0075 ± 0.0092	0.018 ± 0.011	0.007 ± 0.0099	0.0065 ± 0.022	0.006 ± 0.0071	0.013 ± 0.0028	0.013 ± 0.014	0.01 ± 0.0057	0.01 ± 0.0042	-0.0025 ± 0.005	0.0095 ± 0.0092	0.031 ± 0.0085	0.0065 ± 0.0078	0.0135 ± 0.0021	-0.003 ± 0.0057	-0.005 ± 0.0099	0.0095 ± 0.012
3C:Proliferation	-0.0155 ± 0.028	-0.01 ± 0.0014	-0.0265 ± 0.021	-0.0045 ± 0.026	0.006 ± 0.018	-0.0345 ± 0.036	0.0185 ± 0.056	0.0495 ± 0.013	0.0285 ± 0.019	-0.086 ± 0.04	-0.018 ± 0.031	0.0115 ± 0.011	-0.009 ± 0.054	0.002 ± 0.062	-0.025 ± 0.04	-0.0475 ± 0.028	0.0045 ± 0.083	0.0155 ± 0.013	0.003 ± 0.0085
BT:sIL-17A	-0.0215 ± 0.084	-0.0995 ± 0.00071	-0.074 ± 0.021	0.005 ± 0.098	-0.049 ± 0.18	0.0285 ± 0.13	-0.0735 ± 0.14	-0.02 ± 0.058	-0.002 ± 0.11	-0.197 ± 0.18	0.026 ± 0.12	-0.003 ± 0.0099	-0.111 ± 0.061	0.053 ± 0.2	0.214 ± 0.093	0.184 ± 0.1	-0.127 ± 0.005	-0.078 ± 0.2	-0.116 ± 0.096
SAg:SRB	-0.016 ± 0.023	-0.015 ± 0.011	-0.0225 ± 0.015	-0.0025 ± 0.0035	-0.0035 ± 0.0035	0.0045 ± 0.0021	-0.002 ± 0.0042	-0.007 ± 0.0014	0.003 ± 0.0071	-0.0015 ± 0.0021	0.0005 ± 0.0021	0.0085 ± 0.015	-0.0055 ± 0.0035	0.0025 ± 0.013	-0.0045 ± 0.0021	-0.005	-0.0105 ± 0.005	-0.0085 ± 0.011	-0.009 ± 0.011
BT:B cell Proliferation	-0.0055 ± 0.035	0.0075 ± 0.019	0.0285 ± 0.00071	0.01	-0.024 ± 0.0057	-0.0095 ± 0.026	-0.0915 ± 0.016	-0.1 ± 0.0085	-0.099 ± 0.0071	-0.052 ± 0.037	0.0045 ± 0.018	0.005 ± 0.027	-0.0015 ± 0.016	0.019 ± 0.0042	0.0295 ± 0.019	0.024 ± 0.023	0.0295 ± 0.047	0.042 ± 0.034	0.0225 ± 0.0078
BT:sIL-2	-0.0195 ± 0.035	0.03 ± 0.083	0.0825 ± 0.13	-0.0205 ± 0.07	-0.001 ± 0.1	0.0415 ± 0.066	0.0155 ± 0.016	-0.0845 ± 0.11	0.0085 ± 0.035	-0.075 ± 0.035	-0.0015 ± 0.044	-0.0135 ± 0.043	-0.017 ± 0.092	0.015 ± 0.0042	0.116 ± 0.068	0.102 ± 0.014	-0.009 ± 0.059	-0.044 ± 0.037	0.038 ± 0.02
SAg:CCL2/MCP-1	-0.006 ± 0.02	-0.0095 ± 0.0035	-0.0085 ± 0.0064	-0.02 ± 0.017	-0.004 ± 0.041	0.017 ± 0.051	-0.0055 ± 0.12	-0.037 ± 0.028	-0.009 ± 0.024	-0.0075 ± 0.05	-0.009 ± 0.018	-0.002 ± 0.0042	-0.008 ± 0.027	0.0045 ± 0.0064	0.0045 ± 0.019	0.0405 ± 0.033	0.007 ± 0.0085	0.0185 ± 0.0035	0.0105 ± 0.013
BT:PBMC Cytotoxicity	0.0305 ± 0.012	0.026 ± 0.0042	0.024 ± 0.014	-0.0035 ± 0.039	-0.019 ± 0.04	-0.022 ± 0.016	-0.037 ± 0.0071	-0.0455 ± 0.0021	-0.0635 ± 0.0078	-0.049 ± 0.035	-0.0265 ± 0.0064	-0.035 ± 0.0014	-0.0195 ± 0.064	0.0225 ± 0.022	0.0235 ± 0.056	0.053 ± 0.062	0.0075 ± 0.023	0 ± 0.0014	0.0435 ± 0.03
SAg:Proliferation	0.017 ± 0.04	-0.0205 ± 0.032	0.049 ± 0.027	0.0165 ± 0.026	0.0255 ± 0.013	0.001 ± 0.013	-0.085 ± 0.011	-0.199 ± 0.044	-0.253 ± 0.016	-0.263 ± 0.023	-0.026 ± 0.014	-0.0185 ± 0.0035	-0.005 ± 0.047	-0.0055 ± 0.032	-0.053 ± 0.023	-0.048 ± 0.018	-0.0615 ± 0.015	0.009 ± 0.054	-0.017 ± 0.041
BF4T:CCL26/Eotaxin-3	0.018 ± 0.04	-0.02 ± 0.04	-0.0075 ± 0.015	0.023 ± 0.031	0.017 ± 0.033	0.035 ± 0.045	0.057 ± 0.0014	-0.005 ± 0.14	0.0465 ± 0.029	0.031 ± 0.072	-0.0205 ± 0.046	-0.0015 ± 0.015	0.0105 ± 0.047	-0.0015 ± 0.016	-0.018 ± 0.0071	-0.014 ± 0.037	-0.002 ± 0.052	-0.0065 ± 0.029	0.056 ± 0.047
LPS:CXCL8/IL-8	-0.0065 ± 0.00071	-0.003 ± 0.016	0.009 ± 0.02	-0.0295 ± 0.00071	0 ± 0.037	-0.0035 ± 0.043	-0.015 ± 0.0085	-0.001 ± 0.013	0.0045 ± 0.0021	0.0055 ± 0.013	0.0295 ± 0.005	0.0205 ± 0.033	0.027 ± 0.041	-0.004 ± 0.034	-0.002 ± 0.0099	-0.0205 ± 0.026	-0.0015 ± 0.097	0.027 ± 0.054	0.111 ± 0.018
